Earlier results as cited in patent US7230101B1, “Synthesis of methotrexate-containing heterodimeric molecules” (GPC Biotech, Inc., priority 2002, dated 2007).

Tests used:
6 X His = settings: dissociation constant, known in the art, read-out: Affinity
[1] = biological target: Glutathione-S-Transferase; settings: read-out: Affinity, dissociation constant, known in the art
Tet-R = Tet-R (Escherichia coli, UniProt P04483); settings: dissociation constant, known in the art, read-out: Affinity
Sequence of Tet-R (P04483 whole entry): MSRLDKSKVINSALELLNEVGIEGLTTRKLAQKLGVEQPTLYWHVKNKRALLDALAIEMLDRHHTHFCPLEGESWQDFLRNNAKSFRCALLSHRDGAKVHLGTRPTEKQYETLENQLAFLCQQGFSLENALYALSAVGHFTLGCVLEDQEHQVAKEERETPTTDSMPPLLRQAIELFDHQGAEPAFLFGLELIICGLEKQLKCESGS

[Ni] [Ni]
Kd (6 X His): 800 nM

N[C@@H](CCC(=O)N[C@@H](CS)C(=O)NCC(=O)O)C(=O)O [Glutathione]
Kd [1]: 24000 nM

CN(C)[C@@H]1C(=O)C(C(N)=O)=C(O)[C@@]2(O)C(=O)C3=C(O)c4c(O)cccc4[C@@](C)(O)[C@H]3C[C@@H]12 [Tetracyclin]
Kd (Tet-R): 24 nM
